One data set addresses T1, N-ter-GST-HDAC-6 (Homo sapiens, UniProt Q9UBN7).
T1 construct: GST (N); purchased BPS Bioscience 50006
T1 sequence (Q9UBN7 1-1215): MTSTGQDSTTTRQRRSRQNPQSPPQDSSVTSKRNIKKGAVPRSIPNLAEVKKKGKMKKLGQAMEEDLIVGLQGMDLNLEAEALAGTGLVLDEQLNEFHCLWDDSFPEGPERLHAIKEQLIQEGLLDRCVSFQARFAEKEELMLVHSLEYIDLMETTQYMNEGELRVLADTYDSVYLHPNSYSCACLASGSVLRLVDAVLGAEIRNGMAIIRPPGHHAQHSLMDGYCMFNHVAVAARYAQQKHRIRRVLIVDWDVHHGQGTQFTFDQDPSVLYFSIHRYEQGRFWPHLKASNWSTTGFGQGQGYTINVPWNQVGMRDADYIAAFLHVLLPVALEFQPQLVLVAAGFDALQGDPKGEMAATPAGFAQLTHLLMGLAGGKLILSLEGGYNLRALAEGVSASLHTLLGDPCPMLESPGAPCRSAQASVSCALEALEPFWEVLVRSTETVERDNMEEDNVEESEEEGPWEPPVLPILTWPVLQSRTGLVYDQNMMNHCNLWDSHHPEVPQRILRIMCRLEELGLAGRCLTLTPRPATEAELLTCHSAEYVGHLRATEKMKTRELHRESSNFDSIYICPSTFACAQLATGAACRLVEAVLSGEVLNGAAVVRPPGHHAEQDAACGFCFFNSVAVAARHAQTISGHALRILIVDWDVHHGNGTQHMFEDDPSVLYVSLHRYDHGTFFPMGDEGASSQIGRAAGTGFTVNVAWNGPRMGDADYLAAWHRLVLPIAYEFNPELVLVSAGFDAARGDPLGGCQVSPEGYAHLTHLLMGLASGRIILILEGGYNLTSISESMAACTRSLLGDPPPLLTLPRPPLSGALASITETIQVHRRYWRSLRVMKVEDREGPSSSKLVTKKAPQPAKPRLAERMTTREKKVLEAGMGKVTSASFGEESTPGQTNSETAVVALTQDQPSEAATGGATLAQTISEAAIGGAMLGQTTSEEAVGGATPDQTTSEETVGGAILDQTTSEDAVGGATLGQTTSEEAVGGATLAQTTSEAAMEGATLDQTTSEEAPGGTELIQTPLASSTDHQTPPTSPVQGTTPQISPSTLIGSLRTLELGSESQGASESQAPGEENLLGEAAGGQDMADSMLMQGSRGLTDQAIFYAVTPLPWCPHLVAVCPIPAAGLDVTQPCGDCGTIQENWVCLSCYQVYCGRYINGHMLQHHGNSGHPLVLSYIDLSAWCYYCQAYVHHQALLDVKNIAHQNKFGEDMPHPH
Briefly: HDAC-Glo I/II enzyme assay, HDAC6. In kind it is biochemical.

Another data set has as its system normal RPE-1 cells. The data set can be described thus: Cell viability of normal RPE-1 cells (CTG). In kind it is cell-based. To be noted: 120 h.
Another data set has as its target T2, HDAC8 (Homo sapiens, UniProt Q9BY41).
T2 construct: endogenous in cells; host or cells: THP-1
T2 sequence (Q9BY41 1-377): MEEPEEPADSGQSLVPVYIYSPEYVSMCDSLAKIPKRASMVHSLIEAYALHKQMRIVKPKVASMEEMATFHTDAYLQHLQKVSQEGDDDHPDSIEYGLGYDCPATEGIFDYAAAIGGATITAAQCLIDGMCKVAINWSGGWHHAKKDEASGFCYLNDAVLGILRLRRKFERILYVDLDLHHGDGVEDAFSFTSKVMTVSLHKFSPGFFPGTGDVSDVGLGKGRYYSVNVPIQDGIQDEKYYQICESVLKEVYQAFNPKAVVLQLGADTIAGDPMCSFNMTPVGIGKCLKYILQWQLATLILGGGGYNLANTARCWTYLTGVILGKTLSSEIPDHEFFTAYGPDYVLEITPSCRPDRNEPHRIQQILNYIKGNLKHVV
The data set can be described thus: Cellular thermal shift assay (CETSA), HDAC8. Type of data set: cell-based. To be noted: THP-1 cells, 1 h; 4 μM (methods, Figure 2), Figure S14 legend 500 nM. The method, then: THP-1 cells, 1 × 10^7 cells at a density of 1 × 10^6 cells/mL, were treated with 4 μM of test compounds (1 h, 37 °C, 5% CO2). Cells were centrifuged, and the pellet was resuspended with 1 × Phosphate Buffer Saline (Gibco, Grand Island, NY, USA, #10010023) containing 1 × Protease Inhibitor Cocktail (Cell Signaling Technology, Beverly, MA, USA, #5871) and 1 mM phenylmethylsulfonyl fluoride (PMSF, Sigma Aldrich, St. Louis, MO, USA, #10837091001). The suspension volume was divided equally and heated for 3 min at 43–64 °C in a T100 Thermal Cycler (Bio-rad, Hercules, CA, USA). For protein extraction, cells were snap-frozen using liquid nitrogen, thawed twice (25 °C, 1 min), then centrifuged (20,000× g, 15 min, 4 °C). Following centrifugation, protein containing supernatants were denatured at 70 °C for 10 min and loaded on SDS-PAGE gels (Bio-Rad, Hercules, CA, USA, 161-0317). […] The signal was detected with BIORAD Chemi-Doc XRS+ System and by using Immobilon Forte Western HRP Substrate (WBLUF0500).

The subject of the next data set is DU-145. The data set can be described thus: Wound healing assay, DU-145. In kind it is cell-based. The conditions noted are these: 4 μM, 72 h, 1% FBS. Here is the method: Figure S20. Wound healing assay with iDual and ricolinostat. (A) MDA-MB-231 and (B) DU-145 […]
and ricolinostat for 72 h cells grown in relative medium with (1%) FBS conditions. Wound healing is photographed with Nikon Eclipse TS 100 microscope. Wound/healed area is quantified using Image […]

Data set [1] concerns THP-1 cells. The data set can be described thus: Combination treatment with antileukemic drugs, THP-1 cell viability. The conditions noted are these: compound 5 μM 72 h, then compound + etoposide 0.2 μM 48 h. Type of data set: cell-based.
The target of a further data set is LSD1 (Homo sapiens, UniProt O60341). The data set can be described thus: Cellular thermal shift assay (CETSA), LSD1. Type of data set: cell-based. On the set-up: endogenous in cells; host or cells: THP-1. To be noted: THP-1 cells, 1 h; 4 μM (methods, Figure 2), Figure S14 legend 500 nM. Here is the method: THP-1 cells, 1 × 10^7 cells at a density of 1 × 10^6 cells/mL, were treated with 4 μM of test compounds (1 h, 37 °C, 5% CO2). Cells were centrifuged, and the pellet was resuspended with 1 × Phosphate Buffer Saline (Gibco, Grand Island, NY, USA, #10010023) containing 1 × Protease Inhibitor Cocktail (Cell Signaling Technology, Beverly, MA, USA, #5871) and 1 mM phenylmethylsulfonyl fluoride (PMSF, Sigma Aldrich, St. Louis, MO, USA, #10837091001). The suspension volume was divided equally and heated for 3 min at 43–64 °C in a T100 Thermal Cycler (Bio-rad, Hercules, CA, USA). For protein extraction, cells were snap-frozen using liquid nitrogen, thawed twice (25 °C, 1 min), then centrifuged (20,000× g, 15 min, 4 °C). Following centrifugation, protein containing supernatants were denatured at 70 °C for 10 min and loaded on SDS-PAGE gels (Bio-Rad, Hercules, CA, USA, 161-0317). After electrophoresis (100 V and 60 min), proteins were transferred onto PVDF membrane (Bio-Rad #1620177) at 200 mA for 180 min and immunoblotted with primary antibodies (1:10,000 dilution for anti-LSD1 Antibody ab129195 [EPR6825], 1:1000 dilution for Anti-HDAC6 Antibody CST 7558, 1:1000 dilution for Anti-HDAC1 Antibody ab53091, 1:1000 dilution for Anti-HDAC8 Antibody ab187139, 1:5000 dilution for Anti-beta Actin Antibody ab8227) overnight at 4 °C. The next day, membranes were incubated with HRP-conjugated secondary antibodies (1:5000 dilution for Abcam, Cambridge, UK, ab205718) for 1 h at room temperature. The signal was detected with BIORAD Chemi-Doc XRS+ System and by using Immobilon Forte Western HRP Substrate (WBLUF0500).

In data set [2] the test system is THP-1 cells. Briefly: Caspase 3/7 and 7-AAD staining (flow cytometry). To be noted: sublethal concentration (5 μM). A general note: A flow cytometer gives signals particle by particle.

This note sets out measurements from publication PMC9737972, “Dual LSD1 and HDAC6 Inhibition Induces Doxorubicin Sensitivity in Acute Myeloid Leukemia Cells” (Cancers, 2022).

SMILES strings stand for the structures.

At N-ter-GST-HDAC-6, `O=C(NO)c1ccc(CN2CCC(CNC3(c4ccccc4)CC3)CC2)cc1` [iHDAC6] returned an HDAC6/HDAC1 isoform selectivity of over 30 fold. Besides, on N-ter-GST-HDAC-6 (± standard error, three independent measurements), half-maximal inhibition (IC50) was put at 0.23 ± 0.02 µM.
With `O=C(NO)c1ccc(CN2CCC(CN[C@@H]3C[C@H]3c3ccccc3)CC2)cc1` (relative stereo) [iDual], the “toxicity on normal RPE-1 cells” value in the data set with normal RPE-1 cells is “no significant toxicity”. Moreover, the “thermal stabilization of HDAC8 (CETSA)” value at HDAC8 is reported as “not significantly stabilized”. The “wound healing capacity DU-145” value with DU-145 is on record as “slowed down”. The “cell viability after pre-treatment with compound and co-treatment with etoposide” value with THP-1 cells [1] is “decreased cell viability was not observed”. Also, the “thermal stabilization of LSD1 (CETSA)” value on LSD1 is given as “increased thermal stability”. The “apoptosis by caspase activity, compound alone” value in the data set on THP-1 cells [2] was “did not induce apoptosis”.

Broadly, the IC50 is the point on the concentration scale where inhibition reaches its midpoint.
